Assay type in all cases: functional, cell-based
A short description of assay [1]: Cardioprotective activity against hypoxia-induced neonatal rat ventricular myocytes damage assessed as increase in hydrogen sulfide level at 10 uM treated 12 hrs before hypoxia challenge measured after 5 hrs. Particulars: Ventricular myocyte.
Assay [2] relates to Ventricular myocyte. In words: Cardioprotective activity against hypoxia-induced neonatal rat ventricular myocytes damage assessed as increased cell viability at 10 uM treated 12 hrs before hypoxia challenge measured after 5 hrs by MTT assay.
The nature of assay [3]: Cardioprotective activity against hypoxia-induced neonatal rat ventricular myocytes damage assessed as decrease of creatine kinase release at 10 uM treated 12 hrs before hypoxia challenge measured after 5 hrs. The conditions noted are these: Ventricular myocyte.
The nature of assay [4]: Cardioprotective activity against hypoxia-induced neonatal rat ventricular myocytes damage assessed as decrease of LDH release at 10 uM treated 12 hrs before hypoxia challenge measured after 5 hrs. The conditions noted are these: Ventricular myocyte. Background: Release of lactate dehydrogenase indicates damage to the cell membrane.
In assay [5] the test system is Ventricular myocyte. In words: Cardioprotective activity against hypoxia-induced neonatal rat ventricular myocytes damage assessed as increased cell viability at 1 uM treated 12 hrs before hypoxia challenge measured after 5 hrs by MTT assay. A general note: Formazan colour is commonly taken as a measure of viable cells.
The nature of assay [6]: Cardioprotective activity against hypoxia-induced neonatal rat ventricular myocytes damage assessed as decrease of LDH release at 0.1 uM treated 12 hrs before hypoxia challenge measured after 5 hrs. Particulars: Ventricular myocyte.
Assay [7] in a line: Cardioprotective activity against hypoxia-induced neonatal rat ventricular myocytes damage assessed as increase in hydrogen sulfide level at 0.1 uM treated 12 hrs before hypoxia challenge measured after 5 hrs. The conditions noted are these: Ventricular myocyte.
A short description of assay [8]: Cardioprotective activity against hypoxia-induced neonatal rat ventricular myocytes damage assessed as increase in superoxide dismutase activity against 0.1 uM treated 12 hrs before hypoxia challenge measured after 5 hrs. The conditions noted are these: Ventricular myocyte.
Assay [9] can be described thus: Antiapoptotic activity against hypoxia-induced neonatal rat ventricular myocytes damage assessed as decrease in nuclear condensation at 0.1 uM using Hoechst 33258 staining by fluorescence microscopy. The conditions noted are these: Ventricular myocyte.
In assay [10] the test system is Ventricular myocyte. The assay can be described thus: Cardioprotective activity against hypoxia-induced neonatal rat ventricular myocytes damage assessed as increased cell viability at 0.1 uM treated 12 hrs before hypoxia challenge measured after 5 hrs by MTT assay.
Assay [11] is described as follows: Cardioprotective activity against hypoxia-induced neonatal rat ventricular myocytes damage assessed as decrease in malondialdehyde level at 0.1 uM treated 12 hrs before hypoxia challenge measured after 5 hrs. Particulars: Ventricular myocyte.
A short description of assay [12]: Cardioprotective activity against hypoxia-induced neonatal rat ventricular myocytes damage assessed as decrease of LDH release at 1 uM treated 12 hrs before hypoxia challenge measured after 5 hrs. The conditions noted are these: Ventricular myocyte.
A short description of assay [13]: Cardioprotective activity against hypoxia-induced neonatal rat ventricular myocytes damage assessed as decrease of creatine kinase release at 1 uM treated 12 hrs before hypoxia challenge measured after 5 hrs. The conditions noted are these: Ventricular myocyte.
Assay [14] is described as follows: Cardioprotective activity against hypoxia-induced neonatal rat ventricular myocytes damage assessed as decrease of creatine kinase release at 0.1 uM treated 12 hrs before hypoxia challenge measured after 5 hrs. The conditions noted are these: Ventricular myocyte.
The nature of assay [15]: Antiapoptotic activity against hypoxia-induced neonatal rat ventricular myocytes damage assessed as decrease in nuclei-shrunk at 0.1 uM using Hoechst 33258 staining by fluorescence microscopy. Particulars: Ventricular myocyte.
Assay [16] in a line: Cardioprotective activity against hypoxia-induced neonatal rat ventricular myocytes damage assessed as increase in hydrogen sulfide level at 1 uM treated 12 hrs before hypoxia challenge measured after 5 hrs. The conditions noted are these: Ventricular myocyte.

Calls of active or inactive are those of the source. No cut-off for these calls is given here.

On to `C#CCSC[C@H](N)C(=O)O`, for which the Activity in assay [1] was found to be 20.2 µmol/L. The outcome (in the assay on Ventricular myocyte [2]; in assay [3]; in [4]) was Active.
As for `C#CCSC[C@H](N)C(=O)Oc1c(OC)cc(C(=O)OCCCCNC(=N)N)cc1OC`, the result (with Ventricular myocyte [5]; in assay [6]; in the assay with Ventricular myocyte [2]; in assay [8]; in [3]; in assay [9]) was Active. Moreover, the outcome in assay [11], in [12], in assay [4], in assay [13], in [14] and in assay [15] was Active. Further, the Activity in [7] was 21.5 µmol/L; with Ventricular myocyte [10], “Non-toxic”.
For `COc1cc(C(=O)OCCCCNC(=N)N)cc(OC)c1O`, the result (in the assay on Ventricular myocyte [5]; in assay [12]; in [13]) was Active. The result in assay [16] was inactive.

(Values after ChEMBL document CHEMBL1287704, “Synthesis and biological evaluation of novel leonurine-SPRC conjugate as cardioprotective agents” (Bioorg Med Chem Lett, 2010).)
